# Measured values reported in patent US20260344673A1, “A SOLID FORM FOR PREPARATION OF AN AQUEOUS DISPERSION, AQUEOUS DISPERSION, STABLE CONCENTRATE, COMBINED AQUEOUS DISPERSION, AND USES THEREOF” (priority 2022, published 2026).
# Columns and labels:
# [1] = system: Colletotrichum gloeosporioides; assay: Kirby-Bauer disk diffusion test, Colletotrichum gloeosporioides; conditions: Colletotrichum gloeosporioides
# Procedure: (§1) The microbiological tests were carried out by applying Kirby-Bauer Disk Diffusion Susceptibility Test Protocol for antimicrobial activity. It is based on the formation of a concentration gradient in the growth medium during the diffusion of the active substance from the antibiogram disc (Kirby-Bauer method).
# (§2) The performance of the embodiments of the present inventions and their mixtures enriched with millbase (MFA) was analysed against the appropriate reference substance, i.e., a commercial product containing the analogue active substance with the same concentration. The prepared solutions were applied on the paper antibiograms. Then the soaked antibiograms were placed on the Petri Dishes (dish diameter 90 mm) with the growth medium for fungal pathogens V8. Composition of V8: agar, calcium carbonate and multi-vegetable juice. 3 fragments of mycelium of the tested pathogen (5×5 mm) were transplanted onto the prepared medium. As a result, the zones where the fungal growth was inhibited have been measured and compared respectively with the control sample and the analogue active substance sample.
# (§3) Assessment was carried out by determining the infested area of the Petri dish in %. These percentages have been converted into efficacy (W) according to Abbot's formula as follows: W=(1−α/β)×100 • where: • α—corresponds to the mycelium/bacterial growth of each tested sample [%], • β—corresponds to the mycelium/bacterial growth in control sample [%].
# (§4) In order to estimate if the combined action effect with the commercial fungicide, the W parameter of the mixture was compared with W parameter for particular commercial fungicide solo. Where W=0 the efficacy of the control sample (whole Petri dish covered with mycelium), and W=100 is when no mycelium growth observed.
# Phoma lingam = assay: Field trial oilseed rape, efficacy against Phoma lingam; assay type: in vivo; conditions: field conditions, tank-mix, control (no treatment) 4.18
# Procedure: (§5) The rates of application (use) of the composition of the present invention (MFA) vary according to type of use, type of crop, the specific active ingredient in the combination, but is such that the active ingredient in the combination is an effective amount to provide the desired action (such as disease control). The application rate of the composition for a given set of conditions can readily be determined by trials.
# (§6) Field trials were conducted in Poland according to approved EPPO guidelines: PP 1/135(4), PP 1/152(4), PP 1/181(4) (general), PP 1/1(4) (sugar beet), PP 1/28 (3), PP 1/26(4) (winter wheat), PP 1/78(4) (oilseed), PP1/263 (1), PP1/16 (3) (strawberry), PP 1/2 (5), PP 1/263 (1) (potato). The spray volumes were in line with farmers' practice, varying between 200-300 l/ha. The applications were processed as per the EPPO guideline specific for each crop.
# winter wheat = assay: Field trial winter wheat, plant biomass and yield parameters; assay type: in vivo; conditions: field conditions; for Bulk density: control 0.67; for The Thousand Grain Weight (TGW): control 41.90; for Yield: control 76.50; for Biomass: control 157.50
# Procedure: as §6
# Botrytis cinerea = assay: Kirby-Bauer disk diffusion test, Botrytis cinerea
# Procedure: as §2, §3, §4
# Fusarium equiseti = assay: Kirby-Bauer disk diffusion test, Fusarium equiseti
# Procedure: as §2, §3, §4
# soya = assay: Field trial soya, plant biomass and yield parameters; assay type: in vivo; conditions: field conditions; for Bulk density: control 0.728; for Yield: control 37.41; for Biomass: control 190.0; for The Thousand Grain Weight (TGW): control 205.3
# Procedure: as §6
# Phytium ultimum = assay: Kirby-Bauer disk diffusion test, Phytium ultimum
# Procedure: as §2, §3, §4
# Verticillium longisporum = assay: Kirby-Bauer disk diffusion test, Verticillium longisporum
# Procedure: as §2, §3, §4
# Phytophthora megasperma = assay: Kirby-Bauer disk diffusion test, Phytophthora megasperma; conditions: Phytophthora megasperma
# Procedure: as §1, §2, §3, §4
# Septoria nodorum (1291) = assay: Kirby-Bauer disk diffusion test, Septoria nodorum (1291)
# Procedure: as §2, §3, §4
# Septoria tritici = assay: Kirby-Bauer disk diffusion test, Septoria tritici
# Procedure: as §2, §3, §4
# Erwinia sp. = assay: Kirby-Bauer disk diffusion test, bacterial pathogens (inhibition zones, halo effect); conditions: Nutrient Agar, tank-mixes; for Efficacy %: control 0.00; for Erwinia sp. bacterial growth: control 3.5 mm
# Fusarium oxysporum = assay: Kirby-Bauer disk diffusion test, Fusarium oxysporum; conditions: Fusarium oxysporum
# Procedure: as §1, §2, §3, §4
# Venturia inaegualis = assay: Kirby-Bauer disk diffusion test, Venturia inaequalis; conditions: Venturia inaegualis
# Procedure: as §1, §2, §3, §4
# Colletotrichum spp. = assay: Field trial soya, efficacy against Colletotrichum spp.; assay type: in vivo; conditions: field conditions, tank-mix, control (no treatment) 4.21
# Monilinia fructigena = assay: Kirby-Bauer disk diffusion test, Monilinia fructigena
# Procedure: as §2, §3, §4
# Sclerotinia sclerotiorum [2] = assay: Kirby-Bauer disk diffusion test, Sclerotinia sclerotiorum
# Procedure: as §2, §3, §4
# Peronospora manshurica = assay: Field trial soya, efficacy against Peronospora manshurica; assay type: in vivo; conditions: field conditions, tank-mix, control (no treatment) 5.66
# Procedure: as §5, §6
# Zymoseptoria tritici = assay: Field trial winter wheat, efficacy against Zymoseptoria tritici; assay type: in vivo; conditions: field conditions, tank-mix, control (no treatment) 4.68
# Procedure: as §5, §6
# oilseed rape = assay: Field trial oilseed rape, plant biomass and yield quality/quantity parameters; assay type: in vivo; conditions: field conditions; for The Thousand Grain Weight (TGW): Tables 31-33, control 5.64; for Bulk density: control 0.65; for Yield: control 25.49; for Biomass: control 90.00
# Procedure: as §6
# Sclerotinia sclerotiorum [3] = assay: Field trial oilseed rape, efficacy against Sclerotinia sclerotiorum; assay type: in vivo; conditions: field conditions, tank-mix, control (no treatment) 6.28
# Procedure: as §5, §6
# Phytophthora cactorum = assay: Kirby-Bauer disk diffusion test, Phytophthora cactorum; set-up: % mycelium growth relative to the control: concentration or dose not given beside the values
# Procedure: as §2, §3, §4
# [4] = system: Alternaria infectoria/alternata; assay: Kirby-Bauer disk diffusion test, Alternaria infectoria/alternata
# Procedure: as §2, §3, §4
# [5] = system: selected pathogens (fungi); conditions: vs commercial fungicide
# Cochliobolus sativus = conditions: Montana 1981 and 1982; cited from earlier work
# spring barley [6] = conditions: Montana 1981 and 1982; cited from earlier work
# spring barley [7] = conditions: compared with uninoculated plots; Montana 1981 and 1982; cited from earlier work
# seeds = assay: Seed treatment test: germination rate, infected seeds, shoot and root biomass (all seed species); assay type: in vivo; conditions: applied alone and in mixtures with seed treatment fungicides
# Procedure: The method of treating seeds according to the embodiment of the present inventions can be characterised in that in the treatment seed with 30 g checked product with and without combination with fungicidal seed treatment products per 100 kg of seed are employed. The results were assessed due to EPPO: PP1/152(4), PP 1/19 (5), PP 1/135(4) and PP1/181(4) Standards.
# Seed treatment test was conducted according to International Rules for Seed Testing 2018 (ISTA) under laboratory conditions using sterile paper as a growing media. The tests were continued for 14 days. As a result, the germination rate and the number of infected seeds were calculated. The biomass (shoots and roots) was collected and measured accordingly.
compound,measurement,setting,value
COC=C(C(=O)OC)c1ccccc1Oc1cc(Oc2ccccc2C#N)ncn1 [Azoxystrobin (250)],% mycelium growth relative to the control,[1]; V8 medium,50%
same,mycelium growth,"[1]; V8 medium, control 5.4 cm",2.7 cm
same,EFFICACY W (Abbot),"[1]; control W=0, no growth W=100",50
same,Efficacy Phoma lingam,Phoma lingam,3.42 scale 0-10
same,Bulk density,winter wheat,0.63 kg/L
same,The Thousand Grain Weight (TGW),winter wheat,43.60 g
same,Yield,winter wheat,66.33 dt/ha
same,Biomass,winter wheat,147.50 dt/ha
same,% mycelium growth relative to the control,Botrytis cinerea; V8 medium,100%
same,mycelium growth,"Botrytis cinerea; V8 medium, control 8.6 cm",8.6 cm
same,EFFICACY W (Abbot),"Botrytis cinerea; control W=0, no growth W=100",0
same,% mycelium growth relative to the control,Fusarium equiseti; V8 medium,77%
same,mycelium growth,"Fusarium equiseti; V8 medium, control 8.6 cm",6.6 cm
same,EFFICACY W (Abbot),"Fusarium equiseti; control W=0, no growth W=100",23
same,Bulk density,soya,0.627 kg/L
same,Yield,soya,38.26 dt/ha
same,Biomass,soya,156.7 dt/ha
same,The Thousand Grain Weight (TGW),soya,204.0 g
same,% mycelium growth relative to the control,Phytium ultimum; V8 medium,100%
same,mycelium growth,"Phytium ultimum; V8 medium, control 8.6 cm",8.6 cm
same,EFFICACY W (Abbot),"Phytium ultimum; control W=0, no growth W=100",0
same,% mycelium growth relative to the control,Verticillium longisporum; V8 medium,56%
same,mycelium growth,"Verticillium longisporum; V8 medium, control 3.9 cm",2.2 cm
same,EFFICACY W (Abbot),"Verticillium longisporum; control W=0, no growth W=100",44
same,% mycelium growth relative to the control,Phytophthora megasperma; V8 medium,70%
same,mycelium growth,"Phytophthora megasperma; V8 medium, control 5.4 cm (8.6 cm in Table 25)",3.8 cm
same,EFFICACY W (Abbot),"Phytophthora megasperma; control W=0, no growth W=100",30
same,% mycelium growth relative to the control,Septoria nodorum (1291); V8 medium,30%
same,mycelium growth,"Septoria nodorum (1291); V8 medium, control 5.4 cm",1.6 cm
same,EFFICACY W (Abbot),"Septoria nodorum (1291); control W=0, no growth W=100",70
same,% mycelium growth relative to the control,Septoria tritici; V8 medium,0%
same,mycelium growth,"Septoria tritici; V8 medium, control 1.9 cm",0 cm
same,EFFICACY W (Abbot),"Septoria tritici; control W=0, no growth W=100",100
same,Efficacy %,Erwinia sp.,22.86%
same,Erwinia sp. bacterial growth,Erwinia sp.,2.7 mm
same,% mycelium growth relative to the control,Fusarium oxysporum; V8 medium,100%
same,mycelium growth,"Fusarium oxysporum; V8 medium, control 8.6 cm",8.6 cm
same,EFFICACY W (Abbot),"Fusarium oxysporum; control W=0, no growth W=100",0
same,% mycelium growth relative to the control,Venturia inaegualis; V8 medium,0%
same,mycelium growth,"Venturia inaegualis; V8 medium, control 2.9 cm",0 cm
same,EFFICACY W (Abbot),"Venturia inaegualis; control W=0, no growth W=100",100
same,Efficacy Colletotrichum spp.,Colletotrichum spp.,1.76 scale 0-10
same,% mycelium growth relative to the control,Monilinia fructigena; V8 medium,0%
same,mycelium growth,"Monilinia fructigena; V8 medium, control 5.4 cm",0 cm
same,EFFICACY W (Abbot),"Monilinia fructigena; control W=0, no growth W=100",100
same,% mycelium growth relative to the control,Sclerotinia sclerotiorum [2]; V8 medium,100%
same,mycelium growth,"Sclerotinia sclerotiorum [2]; V8 medium, control 8.6 cm",8.6 cm
same,EFFICACY W (Abbot),"Sclerotinia sclerotiorum [2]; control W=0, no growth W=100",0
same,Efficacy Peronospora manshurica,Peronospora manshurica,3.32 scale 0-10
same,Efficacy Zymoseptoria tritici,Zymoseptoria tritici,4.32 scale 0-10
same,The Thousand Grain Weight (TGW),oilseed rape,5.34 g
same,Bulk density,oilseed rape,0.65 kg/L
same,Yield,oilseed rape,25.54 dt/ha
same,Biomass,oilseed rape,112.50 dt/ha
same,Efficacy Sclerotinia sclerotiorum,Sclerotinia sclerotiorum [3],4.32 scale 0-10
same,% mycelium growth relative to the control,Phytophthora cactorum; V8 medium,33%
same,mycelium growth,"Phytophthora cactorum; V8 medium, control 5.4 cm",1.8 cm
same,EFFICACY W (Abbot),"Phytophthora cactorum; control W=0, no growth W=100",67
same,% mycelium growth relative to the control,[4]; V8 medium,40%
same,mycelium growth,"[4]; V8 medium, control 8.6 cm",3.4 cm
same,EFFICACY W (Abbot),"[4]; control W=0, no growth W=100",60
"N#Cc1c[nH]cc1-c1cccc2c1OC(F)(F)O2 [Fludioxonil, fludioxonil]",effectiveness in reducing the development of pathogens (in words),[5],completely inhibited fungal growth
CC1(C)CCC(Cc2ccc(Cl)cc2)C1(O)Cn1cncn1 (centres unmarked) [Metconazole (90)],Efficacy Phoma lingam,Phoma lingam,2.99 scale 0-10
same,Bulk density,winter wheat,0.67 kg/L
same,The Thousand Grain Weight (TGW),winter wheat,46.20 g
same,Yield,winter wheat,78.95 dt/ha
same,Biomass,winter wheat,172.50 dt/ha
same,Bulk density,soya,0.724 kg/L
same,Yield,soya,32.86 dt/ha
same,Biomass,soya,146.7 dt/ha
same,The Thousand Grain Weight (TGW),soya,207.0 g
same,Efficacy Colletotrichum spp.,Colletotrichum spp.,2.31 scale 0-10
same,Efficacy Peronospora manshurica,Peronospora manshurica,3.13 scale 0-10
same,Efficacy Zymoseptoria tritici,Zymoseptoria tritici,3.11 scale 0-10
same,The Thousand Grain Weight (TGW),oilseed rape,6.13 g
same,Bulk density,oilseed rape,0.67 kg/L
same,Yield,oilseed rape,33.63 dt/ha
same,Biomass,oilseed rape,152.50 dt/ha
same,Efficacy Sclerotinia sclerotiorum,Sclerotinia sclerotiorum [3],4.11 scale 0-10
OC(c1ccc(F)cc1)(c1cncnc1)c1ccccc1Cl (centres unmarked) [Nuarimol],control of common root rot / disease ratings,Cochliobolus sativus,statistically significant in disease reduction
same,grain yield,spring barley [6],did not increase grain yield
same,plant emergence,spring barley [7],increased emergence
CCCN(CCOc1c(Cl)cc(Cl)cc1Cl)C(=O)n1ccnc1 [Prochloraz (450)],Efficacy Phoma lingam,Phoma lingam,3.11 scale 0-10
same,Bulk density,winter wheat,0.65 kg/L
same,The Thousand Grain Weight (TGW),winter wheat,46.90 g
same,Yield,winter wheat,71.51 dt/ha
same,Biomass,winter wheat,157.50 dt/ha
same,Bulk density,soya,0.743 kg/L
same,Yield,soya,41.37 dt/ha
same,Biomass,soya,176.7 dt/ha
same,The Thousand Grain Weight (TGW),soya,211.5 g
same,Efficacy %,Erwinia sp.,0.00%
same,Erwinia sp. bacterial growth,Erwinia sp.,3.5 mm
same,Efficacy Colletotrichum spp.,Colletotrichum spp.,2.79 scale 0-10
same,Efficacy Peronospora manshurica,Peronospora manshurica,3.37 scale 0-10
same,Efficacy Zymoseptoria tritici,Zymoseptoria tritici,3.37 scale 0-10
same,The Thousand Grain Weight (TGW),oilseed rape,5.72 g
same,Bulk density,oilseed rape,0.68 kg/L
same,Yield,oilseed rape,30.06 dt/ha
same,Biomass,oilseed rape,125.00 dt/ha
same,Efficacy Sclerotinia sclerotiorum,Sclerotinia sclerotiorum [3],4.17 scale 0-10
C=CCOC(Cn1ccnc1)c1ccc(Cl)cc1Cl (centres unmarked) [imazalil],plant emergence,spring barley [7],increased emergence
"O=C(O)CN(CCN(CC(=O)O)CC(=O)O)CC(=O)O.[Zn+2] [zinc chelated by EDTA, zinc chelated by EDTA (ethylenediamine tetraacetic acid)]",biomass increase (shoots and roots),seeds,neutral to positive influence
same,germination percentage,seeds,neutral to positive influence
